In patent US5466717A, “Halogenated 4'-methoxyacetophenones as microbicides and preservatives” (Buckman Laboratories Int'l, Inc., priority 1993, dated 1995):
Values after ≈ are worked out from the molar mass of the structure shown. Like-named read-outs stand apart in the source and are kept apart here.

How the values were obtained:
[1] = tested on: Pseudomonas aeruginosa; experiment: Pulp substrate method, percent kill of P. aeruginosa (Table 2); format: cell-based
Method: Compounds 1 and 2 were tested by the pulp substrate method described in detail in U.S. Pat. No. 2,881,070, column 5, line 12--column 6, line 53. The disclosure of U.S. Pat. No. 2,881,070 is specifically incorporated here by reference. […] The tests utilized Enterobacter aerogenes and Pseudomonas aeruginosa in pulp substrates that had been buffered at pH 7.0 and 8.0.

[2] = tested on: Aspergillus sp., Aureobasidium sp., Trichoderma sp., Penicillium sp., and Chaetomium sp.; experiment: Resistance to growth of mold on the surface of interior coatings in an environmental chamber, ASTM D3273-86 (Table 4); set-up: key: 10: no mold growth; 9: very slight mold growth; 8: slight growth; 7: slight to medium growth; 6: slight to medium growth; 5: failure (extensive growth)
Method: A standard method to determine the resistance to growth of mold on the surface of interior coatings in an environmental chamber, ASTM method D3273-86, was used to determine the effectiveness of compounds 1 and 2.
Treatments were prepared by dissolving 2.0 g of the compounds of the present invention in 10 mL of acetone/methanol. Two types of paint were used: namely, an alkyd (self-priming white with Beckasol 296-70) and a latex (self-priming, alkyd-modified acrylic paint). […] Each sample was shaken vigorously for 5 minutes using a standard paint shaker.
Blocks of drywall having two inch by four inch dimensions were painted on the front surface and on all edges with two coats of the respective treatments. After drying, the back side was painted with one coat of clear latex. A hole was drilled half-way through the block at one end, and duplicate blocks per treatment were hung in an environmental chamber.
The aggressive nature of the interior of the chamber was developed by inoculating trays of moist potting soil with active cultures of Aspergillus sp., Aureobasidium sp., Trichoderma sp., Penicillium sp., and Chaetomium sp. The chamber was maintained at 100 percent relative humidity and 32° C. Final observations were made after four weeks (for latex blocks) or eight weeks (for alkyd blocks).

[3] = tested on: Chlorella pyrenoidosa; experiment: Growth inhibition of algae in Difco Algae Broth (Table 6); format: cell-based; settings: Auxenochlorella pyrenoidosa, 672 h, read-out: Minimum inhibitory concentration
Method: The growth-inhibiting activity of the method of the invention against the algae Chlorella pyrenoidosa was evaluated at two different pH levels in Difco Algae Broth. The content of the broth was as follows: Forty-gram portions of the algae medium were added to 250 mL Erlenmeyer flasks fitted with loose metal caps and were then sterilized. Each of the following substances was then added to the flasks in the order listed: (1) Sterile algae medium as required to bring the total weight of the contents of each flask to 50 grams, after allowing for all subsequent additions specified below. (2) A solution of the toxicant or of a control agent to be evaluated in each test, to give the concentration desired in parts per million by weight. (3) Chlorella pyrenoidosa, in amounts sufficient to give excellent growth in the controls after 14 days. This was achieved by adding 1 milliliter of a 14 day old culture having luxuriant growth. The Chlorella pyrenoidosa culture was obtained from American Type Culture Collection No. 7516. Control experiments were carried out where no toxicants were employed. In the algicidal tests the growth of algae in the nutrient is lush green and can be seen with the naked eye. Since the minimum inhibitory concentrations of the compounds in this example are those which result in complete inhibition, evaluation of the test results is not subjective. After the inoculum of the test algae was added, the flasks were incubated at a temperature of 28°±2° C. under fluorescent illumination of 250 foot-candle intensity (8 hours light, 16 hours darkness) for a period adequate for growth in the controls (those portions of medium which contained no toxicant). Observations of growth were made at 7-day intervals. Minimum inhibitory concentrations are those that prevented complete growth after 28 days.

[4] = tested on: Desulfovibrio desulfuricans; experiment: Effectiveness against sulfate reducing bacterium, Method API Rp 38 (Table 7); format: cell-based; set-up: key: 4: excellent; 3: good; 2: poor; 1: very poor, scant, questionable; 0: no growth; settings: pH 7.0, duplicates
Method: The effectiveness of compounds 1 and 2 against Desulfovibrio desulfuricans,a sulfate reducing bacterium, was determined using the method recommended by the American Petroleum Institute (Method API Rp 38). The composition of the sulfate-reducer medium for the bacteriostatic test is as follows: The ingredients are dissolved by gentle heating with constant stirring. […] If necessary, the medium is then filtered through Whatman No. 1 or No. 2 filter paper. Following filtration, the medium is autoclaved at 15 lb steam pressure for […]. After autoclaving, the medium is allowed to cool slightly and the iron salt, Fe(SO4)2 (NH4)2.6H2 O, is added. The pH is then checked and readjusted if necessary. The medium is now cooled to room temperature as rapidly as possible, without agitation. After cooling, the medium is inoculated from the third successive 24-hour transfer of an actively growing culture (a liquid culture which turns black within 24 hours after inoculation) of sulfate-reducing bacteria. Ten milliliters of inoculum are added to each liter of medium. From stock solutions of the chemical to be screened, sufficient amounts of the compounds are added to 1- or 2-oz clear bottles so that the desired concentrations of chemicals are present when the containers are filled. The amount of stock solution added cannot exceed 10 percent of the volume of the test bottle. After addition of the chemical, the bottles are completely filled with the inoculated medium. The bottles are then capped with plastic caps containing cork and aluminum foil or Teflon liners and are incubated at 30°±2° C. All work is done in duplicate with at least three controls for each series. The controls consist of bottles filled with inoculated medium only. Growth of sulfate-reducing bacteria in the bottles is indicated by an intense blackening of the medium, whereas containers having sufficient chemical to inhibit growth will remain clear. Bottles with no sulfate-reducing bacteria growth are observed for a period of 28 days after the controls have blackened. The results were recorded using a +/0 scale where "+" indicates growth and "0" indicates no growth.

[5] = pH 7.0, read-out: % Kill of P. aeroginosa
[6] = pH 8.0, read-out: % Kill of P. aeroginosa
[7] = 0.01 % by weight, alkyd, eight weeks
[8] = 0.01 % by weight, latex, four weeks
[9] = 0.025 % by weight, alkyd, eight weeks
[10] = 0.025 % by weight, latex, four weeks
[11] = 0.05 % by weight, alkyd, eight weeks
[12] = 0.05 % by weight, latex, four weeks
[13] = 0.10 % by weight, alkyd, eight weeks
[14] = 0.10 % by weight, latex, four weeks
[15] = 0.25 % by weight, alkyd, eight weeks
[16] = 0.25 % by weight, latex, four weeks
[17] = 0.50 % by weight, alkyd, eight weeks
[18] = 0.50 % by weight, latex, four weeks

SMILES | killing at 1 ppm [1, 5] [%] | killing at 1 ppm [1, 6] [%] | killing at 2 ppm [1, 5] [%] | killing at 2 ppm [1, 6] [%] | killing at 4 ppm [1, 5] [%] | killing at 4 ppm [1, 6] [%] | killing at 8 ppm [1, 5] [%] | killing at 8 ppm [1, 6] [%] | killing at 10 ppm [1, 5] [%] | killing at 10 ppm [1, 6] [%] | killing at 15 ppm [1, 5] [%] | killing at 15 ppm [1, 6] [%] | killing at 20 ppm [1, 5] [%] | killing at 20 ppm [1, 6] [%] | killing at 25 ppm [1, 5] [%] | killing at 25 ppm [1, 6] [%] | Growth of mold on the surface of interior coatings [2, 7] | Growth of mold on the surface of interior coatings [2, 8] | Growth of mold on the surface of interior coatings [2, 9] | Growth of mold on the surface of interior coatings [2, 10] | also measured
COc1ccc(C(=O)CBr)cc1Br [Compound 1, 2,3'-dibromo-4'-methoxyacetophenone] | 6 | 85 | 7 | 75 | 43 | 89 | 67 | 70 | 93 | 79 | 94 | 94 | 98 | 89 | 97 | 99 | 5 | 8 | 5 | 8 | Growth of mold on the surface of interior coatings [2, 11]: 6; Growth of mold on the surface of interior coatings [2, 12]: 9; Growth of mold on the surface of interior coatings [2, 13]: 6; Growth of mold on the surface of interior coatings [2, 14]: 9; Growth of mold on the surface of interior coatings [2, 15]: 7; Growth of mold on the surface of interior coatings [2, 16]: 10; Growth of mold on the surface of interior coatings [2, 17]: 7; Growth of mold on the surface of interior coatings [2, 18]: 10; MIC ([3]; pH 7.0, 28 days): 4 µg/mL (≈ 13 µM); MIC ([3]; pH 8.0, 28 days): 2 µg/mL (≈ 6.49 µM); growth of Desulfovibrio desulfuricans ([4]; 4 ppm): 0; growth of Desulfovibrio desulfuricans ([4]; 10 ppm): 0; growth of Desulfovibrio desulfuricans ([4]; 15 ppm): 0; growth of Desulfovibrio desulfuricans ([4]; 20 ppm): 0
COc1ccc(C(=O)C(Br)Br)cc1Br [Compound 2, 2,2,3'-tribromo-4'-methoxyacetophenone] | 15 | 0 | 0 | 54 | 36 | 25 | 17 | 71 | 80 | 86 | 97 | 94 | 98 | 99 | 97 | 99 | 5 | 9 | 5 | 10 | Growth of mold on the surface of interior coatings [2, 11]: 6; Growth of mold on the surface of interior coatings [2, 12]: 10; Growth of mold on the surface of interior coatings [2, 13]: 8; Growth of mold on the surface of interior coatings [2, 14]: 10; Growth of mold on the surface of interior coatings [2, 15]: 10; Growth of mold on the surface of interior coatings [2, 16]: 10; Growth of mold on the surface of interior coatings [2, 17]: 10; Growth of mold on the surface of interior coatings [2, 18]: 10; MIC ([3]; pH 7.0, 28 days): 8 µg/mL (≈ 20.7 µM); MIC ([3]; pH 8.0, 28 days): 4 µg/mL (≈ 10.3 µM); growth of Desulfovibrio desulfuricans ([4]; 4 ppm): 0; growth of Desulfovibrio desulfuricans ([4]; 8 ppm): 0; growth of Desulfovibrio desulfuricans ([4]; 10 ppm): 0; growth of Desulfovibrio desulfuricans ([4]; 15 ppm): 0; growth of Desulfovibrio desulfuricans ([4]; 20 ppm): 0
